Laboratory results from US6797700B2, “Antithrombotic azacycloalkylalkanoyl peptides and pseudopeptides” (Aventis Pharmaceuticals, Inc., priority 1993, dated 2004).
Read-outs that look alike come from different tables or passages of the source.

What was measured:
[1] = test system: ADP-induced platelet aggregation in canine platelet rich plasma; test: Inhibition of ADP-Induced ex-vivo Platelet Aggregation after oral administration; format: in vivo, mongrel dogs; details: dog; for inhibition at 5 mg/kg / inhibition at 10 mg/kg: Canis lupus familiaris, Platelet
Experimental: Inhibition of ADP-Induced ex-vivo Platelet Aggregation
Control blood samples are obtained 5-10 minutes prior to administration of the test compound in mongrel dogs weighing from 10 to 20 kg. The compound is administered intragasticly, via aqueous gavage, or orally, via gelatin capsule. Blood samples (5 ml) are then obtained at 30 minute intervals for 3 hours, and at 6, 12, and 24 hours after dosing. Each blood sample is obtained by venipuncture of the cephalic vein and is collected directly into a plastic syringe containing one part 3.8% trisodium citrate to nine parts blood.
Ex vivo Canine Platelet Aggregation
The blood samples are centrifuged at 1000 rpm for 10 minutes to obtain platelet rich plasma (PRP). After removal of the PRP, the sample is centrifuged for an additional 10 minutes at 2000 rpm to obtain platelet poor plasma (PPP). Platelet count in the PRP is determined by using a Coulter Counter (Coulter Electronics, Hialeah, Fla.). If the concentration of platelets in the PRP is greater than 300,000 platelets/μl, then the PRP is diluted with PPP to adjust the platelet count to 300,000 platelets/μl. Aliquots of PRP (250 μl) are then placed in siliconized glass cuvettes (7.25×55 mm, Bio/Data Corp, Horsham, Pa.). Epinephrine (final concentration of 1 μM) is then added to the PRP, which is incubated for one minute at 37° C. A stimulator of platelet aggregation, ADP at a final concentration of 10 μM, is then added to the PRP. Platelet aggregation is monitored spectrophotometrically utilizing a light transmission aggregometer (Bio/Data Platelet Aggregation Profiler, Model PAP-4, Bio/Data Corp, Horsham, Pa.). For compound to be tested, the rate of change (slope) of light transmittance and the maximum light transmittance (maximum aggregation) is recorded in duplicate. Platelet aggregation data are reported as the percent decrease (mean±SEM) in slope or maximum aggregation as compared to data obtained from control PRP, which is prepared from blood samples obtained prior to administration of the test compound.

[2] = test system: fixed activated platelets; test: Platelet Aggregation Assay (fixed-activated platelets, fibrinogen-mediated aggregation); format: cell-based; details: aggregation initiated by human fibrinogen 250 μg/ml, read-out: Inhibition of Fixed Platelet Aggregation (IC50 μM)
Experimental: Preparation of Fixed-Activated Platelets
Platelets are isolated from human platelet concentrates using the gel-filtration technique as described by Marguerie, G. A., et al., J. Biol. Chem. 254, 5357-5363 (1979) and Ruggeri, Z. M., et al., J. Clin. Invest. 72, 1-12 (1983). The platelets are suspended at a concentration of 2×10^8 cells/ml in a modified calcium-free Tyrode's buffer containing 127 mM sodium chloride, 2 mM magnesium chloride, 0.42 mM Na2HPO4, 11.9 mM NaHCO3, 2.9 mM KCl, 5.5 mM glucose, 10 mM HEPES, at a pH of 7.35 and 0.35% human serum albumin (HSA). These washed platelets are activated by addition of human a-thrombin at a final concentration of 2 units/ml, followed by thrombin inhibitor I-2581 at a final concentration of 40 μM. To the activated platelets is added paraformaldehyde to a final concentration of 0.50% and this incubated at room temperature for 30 minutes. The fixed activated platelets are then collected by centrifugation at 650×g for 15 minutes. The platelet pellets are washed four times with the above Tyrode's-0.35% HSA buffer and resuspended to 2×10^8 cells/ml in the same buffer.
Platelet Aggregation Assay
The fixed activated platelets are incubated with a selected dose of the compound to be tested for platelet aggregation inhibition for one minute and aggregation initiated by addition of human fibrinogen to a final concentration of 250 μg/ml. A platelet aggregation profiler Model PAP-4 is used to record the platelet aggregation. The extent of inhibition of aggregation is expressed as the percentage of the rate of aggregation observed in the absence of inhibitor.

[3] = dose 5 mg/kg, 1 h after dosing, read-out: % Inhibition of ex-vivo Platelet Aggregation After Oral Administration, 1 h
[4] = dose 5 mg/kg, 3 h after dosing, read-out: % Inhibition of ex-vivo Platelet Aggregation After Oral Administration, 3 h
[5] = 1 h after dosing, read-out: % Inhibition of ex-vivo Platelet Aggregation After Oral Administration, 1 h
[6] = 3 h after dosing, read-out: % Inhibition of ex-vivo Platelet Aggregation After Oral Administration, 3 h
[7] = 6 h after dosing, read-out: % Inhibition of ex-vivo Platelet Aggregation After Oral Administration, 6 h
[8] = dose 5 mg/kg, 6 h after dosing, read-out: % Inhibition of ex-vivo Platelet Aggregation After Oral Administration, 6 h
[9] = dose 5 mg/kg, 12 h after dosing, read-out: % Inhibition of ex-vivo Platelet Aggregation After Oral Administration, 12 h
[10] = dose 5 mg/kg, 24 h after dosing, read-out: % Inhibition of ex-vivo Platelet Aggregation After Oral Administration, 24 h
[11] = fixed activated human platelets

CCN(CC(=O)N[C@@H](CC(=O)O)C(=O)NCCC1CCCCC1)C(=O)CCCC1CCNCC1 [Example 15, 2-cyclohexyl-N-[N-[N-(4-(piperidin-4-yl)butanoyl)-N-ethylglycyl]aspartyl]-ethylamine]
inhibition at 5 mg/kg [1, 3]: 35% | inhibition at 5 mg/kg [1, 4]: 18% | IC50 ([2]; Homo sapiens, Platelet): 0.072 µM

CCN(CC(=O)NC(CC(=O)O)C(=O)NC(CC(C)(C)C)C(=O)O)C(=O)CCCC1CCNCC1 (centres unmarked) [Example 5]
inhibition at 10 mg/kg [1, 5]: 100% | inhibition at 10 mg/kg [1, 6]: 90% | inhibition at 10 mg/kg [1, 7]: 35% | IC50 ([2]; Homo sapiens, Platelet): 0.082 µM

CCOC(=O)C(CC1CCCCC1)NC(=O)C(CC(=O)O)NC(=O)CN(CC)C(=O)CCCC1CCNCC1 [Example 11, N-[N-[N-(4-(piperidin-4-yl)butanoyl)-N-ethylglycyl]aspartyl]-L-b-cyclohexyl alanine, ethyl ester]
inhibition at 5 mg/kg [1, 3]: 100% | inhibition at 5 mg/kg [1, 4]: 100% | inhibition at 5 mg/kg [1, 8]: 60% | inhibition at 5 mg/kg [1, 9]: 37% | IC50 ([2]; Homo sapiens, Platelet): 0.064 µM

CCN(CC(=O)N[C@@H](CC(=O)O)C(=O)N[C@H](C(=O)O)C(C)C)C(=O)CCCC1CCNCC1 [Example 2, N-[N-[N-(4-(piperidin-4-yl)butanoyl)-N-ethylglycyl]aspartyl]valine]
inhibition at 10 mg/kg [1, 5]: 90% | inhibition at 10 mg/kg [1, 6]: 60% | inhibition at 10 mg/kg [1, 7]: < 20% | IC50 ([2]; Homo sapiens, Platelet): 0.027 µM

CCN(CC(=O)NC(CC(=O)O)C(=O)NC(Cc1cccc2ccccc12)C(=O)O)C(=O)CCCC1CCNCC1 [Example 7, N-[N-[N-(4-(piperidin-4-yl)butanoyl)-N-ethylglycyl]aspartyl]-L-b-naphth-1-yl alanine]
inhibition at 5 mg/kg [1, 3]: 30% | inhibition at 5 mg/kg [1, 4]: < 20% | IC50 ([2]; Homo sapiens, Platelet): 0.11 µM

CCN(CC(=O)NC(CC(=O)O)C(=O)NC(CC1CCCCC1)C(N)=O)C(=O)CCCC1CCNCC1 [Example 12, N-[N-[N-(4-(piperidin-4-yl)butanoyl)-N-ethylglycyl]aspartyl]-L-b-cyclohexyl alanine amide]
inhibition at 5 mg/kg [1, 3]: 100% | inhibition at 5 mg/kg [1, 4]: 100% | inhibition at 5 mg/kg [1, 8]: 100% | inhibition at 5 mg/kg [1, 9]: 98% | inhibition at 5 mg/kg [1, 10]: 50% | IC50 ([2]; Homo sapiens, Platelet): 0.097 µM

CCN(CC(=O)NC(CC(=O)O)C(=O)NC(Cc1ccccc1)C(=O)O)C(=O)CCCC1CCNCC1 (centres unmarked) [Example 3, N-[N-[N-(4-piperidin-4-yl)-N-ethylglycyl]aspartyl]phenylalanine]
inhibition at 10 mg/kg [1, 5]: 40% | inhibition at 10 mg/kg [1, 6]: < 20% | IC50 ([2]; Homo sapiens, Platelet): 0.064 µM

CCN(CC(=O)NC(CC(=O)O)C(=O)NC(CC1CCCC2CCCCC21)C(=O)O)C(=O)CCCC1CCNCC1 [Example 14, N-[N-[N-(4-(piperidin-4-yl)butanoyl)-N-ethylglycyl]aspartyl]-L-b-decahydronaphth-1-yl alanine]
inhibition at 5 mg/kg [1, 3]: 100% | inhibition at 5 mg/kg [1, 4]: 100% | inhibition at 5 mg/kg [1, 8]: 100% | inhibition at 5 mg/kg [1, 9]: 100% | inhibition at 5 mg/kg [1, 10]: 95% | IC50 [2, 11]: 0.019 µM

CCN(CC(=O)NC(CC(=O)O)C(=O)NC(CC1CCCCC1)C(=O)O)C(=O)CCCC1CCNCC1 (centres unmarked) [Example 1, N-[N-[N-(4-(piperidin-4-yl)butanoyl)-N-ethylglycyl]aspartyl]-b-cyclogexylalanine]
inhibition at 5 mg/kg [1, 3]: 100% | inhibition at 5 mg/kg [1, 4]: 100% | inhibition at 5 mg/kg [1, 8]: 100% | inhibition at 5 mg/kg [1, 9]: 88% | inhibition at 5 mg/kg [1, 10]: 42% | IC50 ([2]; Homo sapiens, Platelet): 0.026 µM

CCCCC(NC(=O)C(CC(=O)O)NC(=O)CN(CC)C(=O)CCCC1CCNCC1)C(=O)O (centres unmarked) [Example 6]
inhibition at 10 mg/kg [1, 5]: 80% | inhibition at 10 mg/kg [1, 6]: 20% | IC50 ([2]; Homo sapiens, Platelet): 0.13 µM

O=C(O)C[C@H](NC(=O)CNC(=O)CCCC1CCNCC1)C(=O)N[C@@H](Cc1c[nH]c2ccccc12)C(=O)O [Compound of EPA '481, 4-4(piperidyl)butanoyl glycyl aspartyl tryptophan, reference compound]
% Inhibition of ex-vivo Platelet Aggregation After Oral Administration, 1 h ([1]; dose 5 mg/kg, 1 h after dosing): 53% | % Inhibition of ex-vivo Platelet Aggregation After Oral Administration, 3 h ([1]; dose 5 mg/kg, 3 h after dosing): <20% | IC50 [2, 11]: 0.047 µM

CCOC(=O)C(CCC1CCCCC1)NC(=O)C(CC(=O)O)NC(=O)CN(CC)C(=O)CCCC1CCNCC1 (centres unmarked) [Example 34, N-[N-[N-(4-(piperidin-4-yl)butanoyl)-N-ethylglycyl]aspartyl]-b-cyclohexylmethylalanine ethyl ester]
IC50 ([2]; Homo sapiens, Platelet): 0.074 µM

CCN(CC(=O)NC(CC(=O)O)C(=O)NC(C(=O)O)C(C)C)C(=O)CCCC1CCNCC1 (centres unmarked) [Example 4]
inhibition at 10 mg/kg [1, 5]: 90% | inhibition at 10 mg/kg [1, 6]: 50% | inhibition at 10 mg/kg [1, 7]: < 20% | IC50 ([2]; Homo sapiens, Platelet): 0.72 µM

CCN(CC(=O)NC(CC(=O)O)C(=O)NC(CC1CCCCCCC1)C(N)=O)C(=O)CCCC1CCNCC1 (centres unmarked) [Example 30, N-[N-[N-(4-(piperidin-4-yl)butanoyl)-N-ethylglycyl]aspartyl]-b-cyclooctylalanine amide]
IC50 ([2]; Homo sapiens, Platelet): 0.07 µM

CCN(CC(=O)NC(CC(=O)O)C(=O)NC(CC1CCCCCCC1)C(=O)O)C(=O)CCCC1CCNCC1 (centres unmarked) [Example 23, N-[N-[N-(4-(piperidin-4-yl)butanoyl)-N-ethylglycyl]aspartyl]-b-cyclooctylalanine]
IC50 ([2]; Homo sapiens, Platelet): 0.078 µM

CCN(CC(=O)NC(CC(=O)O)C(=O)NC(Cc1cccc2c1CCCC2)C(=O)O)C(=O)CCCC1CCNCC1 (centres unmarked) [Example 27, N-[N-[N-(4-(piperidin-4-yl)butanoyl)-N-ethylglycyl]aspartyl]-b-(1,2,3,4)-tetrahydronaphth-5-ylalanine]
IC50 ([2]; Homo sapiens, Platelet): 0.119 µM

CCN(CC(=O)NC(CC(=O)O)C(=O)NC(CCC1CCCCCCC1)C(=O)O)C(=O)CCCC1CCNCC1 (centres unmarked) [Example 32, N-[N-[N-(4-(piperidin-4-yl)butanoyl)-N-ethylglycyl]aspartyl]-b-cyclooctylmethylalanine]
IC50 ([2]; Homo sapiens, Platelet): 0.052 µM

CCN(CC(=O)NC(CC(=O)O)C(=O)NC(CO)CC1CCCCC1)C(=O)CCCC1CCNCC1 (centres unmarked) [Example 24, N-[N-[N-(4-(piperidin-4-yl)butanoyl)-N-ethylglycyl]aspartyl]-a-cyclohexylmethylethanolamine]
IC50 ([2]; Homo sapiens, Platelet): 0.129 µM
